Source: ChEMBL document CHEMBL5352441, “Modulation of FLT3-ITD and CDK9 in acute myeloid leukaemia cells by novel proteolysis targeting chimera (PROTAC)” (2022)
Values belong to the compound of their own block, whether it stands above or below them. The source made the active and inactive calls. The calls are words filed in the database; no cut-off is given here. Peptide text beside a SMILES is read from it. * marks the point of attachment. Cbz = O=C(OCc1ccccc1)*

Columns and labels:
THP-1 = test: Antiproliferative activity against human THP-1 cells assessed as cell growth inhibition incubated for 72 hrs by resazurin dye based fluorescence analysis; type: functional
CCRF-CEM = test: Antiproliferative activity against human CEM cells assessed as cell growth inhibition incubated for 72 hrs by resazurin dye based fluorescence analysis; type: functional
RS4-11 = test: Antiproliferative activity against human RS4-11 cells assessed as cell growth inhibition incubated for 72 hrs by resazurin dye based fluorescence analysis; type: functional
MOLM-13 = test: Antiproliferative activity against human MOLM-13 cells harboring FLT3-ITD mutation assessed as cell growth inhibition incubated for 72 hrs by resazurin dye based fluorescence analysis; type: functional
HL-60 = test: Antiproliferative activity against human HL-60 cells assessed as cell growth inhibition incubated for 72 hrs by resazurin dye based fluorescence analysis; type: functional
U-937 = test: Antiproliferative activity against human U-937 cells assessed as cell growth inhibition incubated for 72 hrs by resazurin dye based fluorescence analysis; type: functional
Kasumi 1 = test: Antiproliferative activity against human Kasumi 1 cells assessed as cell growth inhibition incubated for 72 hrs by resazurin dye based fluorescence analysis; type: functional
MV4-11 [1] = test: Antiproliferative activity against CRBN-deficient human MV4-11 cells assessed as cell growth inhibition incubated for 72 hrs by resazurin dye based fluorescence analysis; type: functional
MV4-11 [2] = test: Antiproliferative activity against human MV4-11 cells harboring FLT3-ITD mutation assessed as cell growth inhibition incubated for 72 hrs by resazurin dye based fluorescence analysis; type: functional
[3] = molecular target: CDK9/cyclin T1 (Homo sapiens) (UniProt O60563+P50750); test: Inhibition of human CDK9/Cyclin T1 assessed as residual activity at 100 nM relative to control; type: protein-complex assay
[4] = molecular target: Receptor-type tyrosine-protein kinase FLT3 (Homo sapiens) (UniProt P36888); test: Inhibition of human FLT3 assessed as residual activity at 100 nM relative to control
[5] = molecular target: Receptor-type tyrosine-protein kinase FLT3 (Homo sapiens) (UniProt P36888); test: Inhibition of FLT3 signalling pathway in human MV4-11 cells assessed as reduction in STAT5 phosphorylation at Y694 residue at 10 uM incubated for 90 mins by immunoblot analysis; type: cell-based
[6] = molecular target: Receptor-type tyrosine-protein kinase FLT3 (Homo sapiens) (UniProt P36888); test: Inhibition of FLT3 signalling pathway in human MV4-11 cells assessed as reduction in ERK1/2 phosphorylation at T202/Y204 residues at 10 uM incubated for 90 mins by immunoblot analysis; type: cell-based
MV4-11 [7] = test: Effect on CDK9 protein level in human MV4-11 cells at 10 uM incubated for 90 mins by immunoblot analysis; type: functional, cell-based
MV4-11 [8] = test: Effect on FLT3 protein level in human MV4-11 cells at 10 uM incubated for 90 mins by immunoblot analysis; type: functional, cell-based
[9] = molecular target: Cyclin-dependent kinase 9 (Homo sapiens) (UniProt P50750); test: Induction of CDK9 protein degradation in human MV4-11 cells at 0.2 uM incubated for 90 mins by immunoblot analysis; type: cell-based
[10] = molecular target: Receptor-type tyrosine-protein kinase FLT3 (Homo sapiens) (UniProt P36888); test: Induction of FLT3 protein degradation in human MV4-11 cells at 0.2 uM incubated for 90 mins by immunoblot analysis; type: cell-based
MV4-11 [11] = test: Downregulation of Bcl-2 gene expression in human MV4-11 cells at 0.1 uM incubated for 4 hrs by qRT-PCR analysis; type: functional, cell-based
MV4-11 [12] = test: Downregulation of HOXA9 gene expression in human MV4-11 cells at 0.1 uM incubated for 4 hrs by qRT-PCR analysis; type: functional, cell-based
MV4-11 [13] = test: Upregulation of FLT3 total protein level in CRBN-deficient human MV4-11 cells at 0.1 uM incubated for 16 hrs by immunoblot analysis; type: functional, cell-based
MV4-11 [14] = test: Downregulation of MEISI gene expression in human MV4-11 cells at 0.1 uM incubated for 4 hrs by qRT-PCR analysis; type: functional, cell-based
MV4-11 [15] = test: Downregulation of Myb gene expression in human MV4-11 cells at 0.1 uM incubated for 4 hrs by qRT-PCR analysis; type: functional, cell-based
MV4-11 [16] = test: Downregulation of Myc gene expression in human MV4-11 cells at 0.1 uM incubated for 4 hrs by qRT-PCR analysis; type: functional, cell-based
MV4-11 [17] = test: Downregulation of MCL-1 gene expression in human MV4-11 cells at 0.1 uM incubated for 4 hrs by qRT-PCR analysis; type: functional, cell-based
MV4-11 [18] = test: Upregulation of FLT3 total protein level in human MV4-11 cells harboring FLT3-ITD mutation at 0.1 uM incubated for 16 hrs by immunoblot analysis; type: functional, cell-based

Sequence of Receptor-type tyrosine-protein kinase FLT3 (Homo sapiens) (P36888 whole entry): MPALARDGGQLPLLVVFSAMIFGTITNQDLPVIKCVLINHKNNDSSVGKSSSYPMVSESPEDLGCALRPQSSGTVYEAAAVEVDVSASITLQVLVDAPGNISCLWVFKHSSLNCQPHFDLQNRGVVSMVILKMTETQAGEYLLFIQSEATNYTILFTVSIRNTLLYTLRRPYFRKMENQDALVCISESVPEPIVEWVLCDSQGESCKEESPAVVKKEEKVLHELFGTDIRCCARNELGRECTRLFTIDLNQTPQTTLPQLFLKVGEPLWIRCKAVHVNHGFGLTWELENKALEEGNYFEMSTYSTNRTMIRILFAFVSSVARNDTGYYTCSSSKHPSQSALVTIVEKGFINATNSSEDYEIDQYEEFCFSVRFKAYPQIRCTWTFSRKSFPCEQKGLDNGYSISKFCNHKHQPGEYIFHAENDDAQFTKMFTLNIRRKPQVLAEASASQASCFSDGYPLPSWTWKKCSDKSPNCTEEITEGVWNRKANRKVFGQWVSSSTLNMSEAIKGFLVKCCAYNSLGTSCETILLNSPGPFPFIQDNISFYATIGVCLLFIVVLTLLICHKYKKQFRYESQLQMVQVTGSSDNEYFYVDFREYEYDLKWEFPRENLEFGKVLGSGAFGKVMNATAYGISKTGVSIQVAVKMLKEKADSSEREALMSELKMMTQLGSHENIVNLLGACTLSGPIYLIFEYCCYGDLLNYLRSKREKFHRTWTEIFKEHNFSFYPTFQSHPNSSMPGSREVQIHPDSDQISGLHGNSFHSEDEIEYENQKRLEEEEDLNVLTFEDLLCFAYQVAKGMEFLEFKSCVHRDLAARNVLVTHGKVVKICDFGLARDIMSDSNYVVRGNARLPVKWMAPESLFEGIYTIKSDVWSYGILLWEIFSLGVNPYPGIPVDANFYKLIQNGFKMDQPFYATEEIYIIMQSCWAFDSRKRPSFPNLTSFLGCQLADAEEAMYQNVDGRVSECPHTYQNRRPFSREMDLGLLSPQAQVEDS
Sequence of Cyclin-dependent kinase 9 (Homo sapiens) (P50750 whole entry): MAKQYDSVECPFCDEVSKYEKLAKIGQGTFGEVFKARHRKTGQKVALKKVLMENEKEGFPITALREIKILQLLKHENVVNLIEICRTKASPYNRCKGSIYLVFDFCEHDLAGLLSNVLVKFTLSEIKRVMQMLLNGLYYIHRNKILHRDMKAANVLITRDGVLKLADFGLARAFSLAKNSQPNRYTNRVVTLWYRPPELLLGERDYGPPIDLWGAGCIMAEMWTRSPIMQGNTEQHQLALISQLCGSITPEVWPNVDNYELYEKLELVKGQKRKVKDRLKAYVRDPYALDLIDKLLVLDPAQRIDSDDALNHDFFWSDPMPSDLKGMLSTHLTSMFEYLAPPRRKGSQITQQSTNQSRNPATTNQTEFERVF

- GI50 (THP-1): 681 nM
- GI50 (CCRF-CEM): 1280 nM
- GI50 (RS4-11): 295 nM
- GI50 (MOLM-13): 8 nM
- GI50 (HL-60): 1520 nM
- GI50 (U-937): 695 nM
- GI50 (MV4-11 [1]): 8 nM
- GI50 (MV4-11 [2]): 9 nM
- Activity [3]: 3%
- Activity [4]: 2%
SMILES: CCN1CCN(c2ccc(Nc3nc(NC4CCC(N)CC4)nc4c3ncn4C3CCCC3)cc2)CC1 (stereo not drawn)
- GI50 (Kasumi 1): 534 nM

- inhibition [5]: inactive
- inhibition [6]: inactive
SMILES: O=C1CCC(N2C(=O)c3cccc(O)c3C2=O)C(=O)N1 (stereo not drawn)
- Activity (MV4-11 [7]): inactive
- Activity (MV4-11 [8]): inactive

- Activity [9]: inactive
- Activity [10]: inactive
SMILES: CC(C)C[C@@H](C=O)NC(=O)[C@H](CC(C)C)NC(=O)[C@H](CC(C)C)NC(=O)OCc1ccccc1 (Cbz-Leu-Leu-Leu-aldehyde)

SMILES: CNC(=O)c1cc(Oc2ccc(NC(=O)Nc3ccc(Cl)c(C(F)(F)F)c3)cc2)ccn1
- Activity (MV4-11 [11]): inactive
- Activity (MV4-11 [12]): inactive
- Activity (MV4-11 [13]): Active
- Activity (MV4-11 [14]): inactive
- Activity (MV4-11 [15]): inactive
- Activity (MV4-11 [16]): inactive
- Activity (MV4-11 [17]): inactive
- Activity (MV4-11 [18]): Active

SMILES: CC(C)(C)c1cc(NC(=O)Nc2ccc(-c3cn4c(n3)sc3cc(OCCN5CCOCC5)ccc34)cc2)no1
- Activity (MV4-11 [11]): inactive
- Activity (MV4-11 [12]): inactive
- Activity (MV4-11 [13]): Active
- Activity (MV4-11 [14]): inactive
- Activity (MV4-11 [15]): inactive
- Activity (MV4-11 [16]): inactive
- Activity (MV4-11 [17]): inactive
- Activity (MV4-11 [18]): Active
